ChEMBL document CHEMBL1201862, “PubChem BioAssay data set” (2004)
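A five-concentration, 48-hour dose response in 96-well plates underlies each endpoint, interpolated linearly between surrounding concentrations. Here, GI50 denotes the concentration required for 50% inhibition of growth.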 Active and inactive are the calls of the source. Cut-off read from the data, not from the text of the source: active = GI50 up to about 1.1 µM and inactive = higher.

Experiments:
Assay in all cases: NCI anticancer screen, dose series, 48 h
NCI-H23 = tested on: NCI-H23
SR = tested on: SR
EKVX = tested on: EKVX
SF-268 = tested on: SF-268
NCI-H522 = tested on: NCI-H522
SNB-75 = tested on: SNB-75
ACHN = tested on: ACHN
LOX IMVI = tested on: LOX IMVI
UO-31 = tested on: UO-31
SNB-19 = tested on: SNB-19
786-0 = tested on: 786-0
MOLT-4 = tested on: MOLT-4
U-251 = tested on: U-251
SK-MEL-2 = tested on: SK-MEL-2
M14 = tested on: M14
MCF7 = tested on: MCF7
NCI/ADR-RES = tested on: NCI/ADR-RES
MDA-MB-435 = tested on: MDA-MB-435
PC-3 = tested on: PC-3
MDA-N = tested on: MDA-N

SMILES	GI50 (NCI-H23)	GI50 (SR)	GI50 (EKVX)	GI50 (SF-268)	GI50 (NCI-H522)	GI50 (SNB-75)	GI50 (ACHN)	GI50 (LOX IMVI)	GI50 (UO-31)	GI50 (SNB-19)	GI50 (786-0)	GI50 (MOLT-4)	GI50 (U-251)	GI50 (SK-MEL-2)	GI50 (M14)	GI50 (MCF7)	GI50 (NCI/ADR-RES)	GI50 (MDA-MB-435)	GI50 (PC-3)	GI50 (MDA-N)
CC1CC2OC(=O)C3CC(O)CC(=C23)[C@@]12C[C@@H](c1ccoc1)OC2=O (stereo not given in full)	> 100 µM (inactive)	> 100 µM (inactive)	> 100 µM (inactive)	> 100 µM (inactive)	> 100 µM (inactive)	> 100 µM (inactive)	> 100 µM (inactive)	> 100 µM (inactive)	> 100 µM (inactive)	> 100 µM (inactive)	> 100 µM (inactive)	> 100 µM (inactive)	> 100 µM (inactive)	> 100 µM (inactive)	> 100 µM (inactive)					
CCN(CCCOc1ccccc1)CCN(CC)CCCOc1ccccc1	18.8 µM (inactive)	8.26 µM (inactive)	12.7 µM (inactive)	12.6 µM (inactive)	14.2 µM (inactive)	21.8 µM (inactive)	16.3 µM (inactive)	10.8 µM (inactive)	10.2 µM (inactive)	9.1 µM (inactive)	18.4 µM (inactive)	2.57 µM (inactive)	12.9 µM (inactive)	17.9 µM (inactive)	11.5 µM (inactive)	30.8 µM (inactive)	20 µM (inactive)	13 µM (inactive)	2.52 µM (inactive)	
COc1c(C2(c3ccc(F)cc3)SCCCS2)c(=O)c1=O	> 100 µM (inactive)		> 100 µM (inactive)	> 100 µM (inactive)		> 100 µM (inactive)	> 100 µM (inactive)	> 100 µM (inactive)	> 100 µM (inactive)	> 100 µM (inactive)	> 100 µM (inactive)	> 100 µM (inactive)	> 100 µM (inactive)	> 100 µM (inactive)	> 100 µM (inactive)	> 100 µM (inactive)	> 100 µM (inactive)	> 100 µM (inactive)	> 100 µM (inactive)	> 100 µM (inactive)
Cc1ccc([N+](=O)[O-])cc1NC(=O)C(=O)Cc1cc(=O)oc2cc(O)ccc12	> 100 µM (inactive)	32.4 µM (inactive)	> 100 µM (inactive)	32 µM (inactive)	> 100 µM (inactive)	> 100 µM (inactive)	> 100 µM (inactive)	26.6 µM (inactive)	> 100 µM (inactive)	> 100 µM (inactive)	> 100 µM (inactive)	> 100 µM (inactive)	> 100 µM (inactive)	> 100 µM (inactive)	> 100 µM (inactive)					
CC(=O)OCC1=C(CCC#N)N2C(=O)C(NC(=O)Cc3cccs3)C2[S+]([O-])C1 (stereo not given)	> 100 µM (inactive)	> 100 µM (inactive)	> 100 µM (inactive)	> 100 µM (inactive)	44.6 µM (inactive)	> 100 µM (inactive)	> 100 µM (inactive)	> 100 µM (inactive)	> 100 µM (inactive)	> 100 µM (inactive)	> 100 µM (inactive)	> 100 µM (inactive)	> 100 µM (inactive)	> 100 µM (inactive)	> 100 µM (inactive)					
Oc1ccc2ccccc2c1/N=N/c1cc(Cl)ccc1Cl	44.5 µM (inactive)		9.06 µM (inactive)	17.1 µM (inactive)	17.1 µM (inactive)	11.3 µM (inactive)	11 µM (inactive)		21.3 µM (inactive)	15.8 µM (inactive)	9.14 µM (inactive)	15.4 µM (inactive)	9.16 µM (inactive)	28.4 µM (inactive)	14.6 µM (inactive)		31.6 µM (inactive)	> 50 µM (inactive)	43.5 µM (inactive)	27.5 µM (inactive)
N/C(=N\Nc1cccc(Cl)c1)c1cccnc1	43.5 µM (inactive)	26 µM (inactive)	40.6 µM (inactive)	65.3 µM (inactive)	29.6 µM (inactive)	29.7 µM (inactive)	18.9 µM (inactive)	50 µM (inactive)	7.87 µM (inactive)	58.9 µM (inactive)	38.2 µM (inactive)	28.3 µM (inactive)	41.8 µM (inactive)	36.9 µM (inactive)	17.1 µM (inactive)	38.7 µM (inactive)	38.7 µM (inactive)	2.72 µM (inactive)	31 µM (inactive)	
O=C1C(C(O)(C(F)(F)Cl)C(F)(F)Cl)CCCC1C(O)(C(F)(F)Cl)C(F)(F)Cl (stereo not given)	> 10 µM (inactive)		> 10 µM (inactive)	> 10 µM (inactive)	> 10 µM (inactive)		> 10 µM (inactive)	> 10 µM (inactive)		> 10 µM (inactive)	> 10 µM (inactive)		> 10 µM (inactive)	> 10 µM (inactive)	> 10 µM (inactive)	> 10 µM (inactive)	> 10 µM (inactive)	> 10 µM (inactive)	> 10 µM (inactive)	> 10 µM (inactive)
Cc1ccc(C[N+](C)(C)N)cc1C	> 10 µM (inactive)		> 10 µM (inactive)	> 10 µM (inactive)	> 10 µM (inactive)	> 10 µM (inactive)	> 10 µM (inactive)	> 10 µM (inactive)	> 10 µM (inactive)	> 10 µM (inactive)	> 10 µM (inactive)	> 10 µM (inactive)	> 10 µM (inactive)		> 10 µM (inactive)	> 10 µM (inactive)	> 10 µM (inactive)	> 10 µM (inactive)	> 10 µM (inactive)	> 10 µM (inactive)
COc1cc2c(c(OC)c1OC)-c1ccc(SC)c(=O)cc1[C@@H](NC(=O)c1ccc(C#N)cc1)CC2	< 0.01 µM (active)	< 0.01 µM (active)	< 0.01 µM (active)	< 0.01 µM (active)	< 0.01 µM (active)	0.146 µM (active)	< 0.01 µM (active)	< 0.01 µM (active)	< 0.01 µM (active)	< 0.01 µM (active)	< 0.01 µM (active)	< 0.01 µM (active)	< 0.01 µM (active)	< 0.01 µM (active)	< 0.01 µM (active)					
COC(=O)/C([Se]c1c(C)cc(C)cc1C)=C(/[Se]c1c(C)cc(C)cc1C)C(=O)OC	> 100 µM (inactive)	39.9 µM (inactive)	> 100 µM (inactive)	> 100 µM (inactive)	> 100 µM (inactive)	> 100 µM (inactive)	> 100 µM (inactive)	> 100 µM (inactive)	> 100 µM (inactive)	> 100 µM (inactive)	> 100 µM (inactive)	47.3 µM (inactive)	> 100 µM (inactive)	> 100 µM (inactive)	> 100 µM (inactive)					
C[N+]1(C)C2Cc3ccccc3C1Cc1ccccc12	> 100 µM (inactive)		> 100 µM (inactive)	> 100 µM (inactive)	> 100 µM (inactive)		> 100 µM (inactive)	> 100 µM (inactive)	> 100 µM (inactive)	> 100 µM (inactive)	> 100 µM (inactive)	> 100 µM (inactive)	> 100 µM (inactive)	> 100 µM (inactive)	> 100 µM (inactive)	> 100 µM (inactive)	> 100 µM (inactive)	> 100 µM (inactive)	75.7 µM (inactive)	78.2 µM (inactive)
C(=N\OCc1ccccc1)/c1ncccc1C1OCCO1	> 100 µM (inactive)	> 100 µM (inactive)	> 100 µM (inactive)	> 100 µM (inactive)	> 100 µM (inactive)	> 100 µM (inactive)	> 100 µM (inactive)	> 100 µM (inactive)	> 100 µM (inactive)	> 100 µM (inactive)	> 100 µM (inactive)	> 100 µM (inactive)	> 100 µM (inactive)	> 100 µM (inactive)	> 100 µM (inactive)					
COc1cc(OC)c2c(c1)C(=O)C(CC1(C)OCCCO1)=CC2=O	13.2 µM (inactive)	1.29 µM (inactive)	14.3 µM (inactive)	13.9 µM (inactive)	3.43 µM (inactive)	11 µM (inactive)	9.75 µM (inactive)	4.34 µM (inactive)	11 µM (inactive)	18.2 µM (inactive)	9.77 µM (inactive)	2.05 µM (inactive)	17.4 µM (inactive)	15.2 µM (inactive)	13 µM (inactive)					
CCC12C=CCN3CC[C@]4(C(=C(C(=O)OC)[C@@H]1Nc1ncnc5c1ncn5C1OC(COC(C)=O)C(OC(C)=O)C1OC(C)=O)Nc1ccccc14)C32 (stereo not given in full)	1.97 µM (inactive)	2.34 µM (inactive)	4.78 µM (inactive)	2.05 µM (inactive)	1.7 µM (inactive)	2.43 µM (inactive)	2.34 µM (inactive)	1.75 µM (inactive)	5.62 µM (inactive)	5.62 µM (inactive)	1.94 µM (inactive)	3.3 µM (inactive)	2.19 µM (inactive)	3.44 µM (inactive)	2.62 µM (inactive)					
CCN1CCC(O)(/C=C/c2ccc(Cl)cc2)C(C(=O)/C=C/c2ccc(Cl)cc2)C1 (stereo not given)	20.2 µM (inactive)	34.5 µM (inactive)	43.9 µM (inactive)	30.4 µM (inactive)	28.4 µM (inactive)	33.9 µM (inactive)	33 µM (inactive)	16.2 µM (inactive)	31.3 µM (inactive)	71.6 µM (inactive)	20 µM (inactive)	23.9 µM (inactive)	19 µM (inactive)	69.3 µM (inactive)	34.6 µM (inactive)					
CCOC(=O)C1(Br)C(c2ccccc2)NC(=O)NC1(C)Br (stereo not given)	67.3 µM (inactive)	57.1 µM (inactive)	95.3 µM (inactive)	> 100 µM (inactive)	30.3 µM (inactive)	> 100 µM (inactive)	> 100 µM (inactive)	38.3 µM (inactive)	> 100 µM (inactive)	19 µM (inactive)	38.3 µM (inactive)	73.3 µM (inactive)	16.4 µM (inactive)	> 100 µM (inactive)	82.8 µM (inactive)					
